These results are taken from article PMC6915745, “TRIB3 supports breast cancer stemness by suppressing FOXO1 degradation and enhancing SOX2 transcription” (Nature Communications, 2019).

One experiment concerns the target T1, TRIB3-GST protein (Homo sapiens, UniProt Q96RU7).
T1 construct: purchased Sino, China
T1 sequence (Q96RU7 1-358): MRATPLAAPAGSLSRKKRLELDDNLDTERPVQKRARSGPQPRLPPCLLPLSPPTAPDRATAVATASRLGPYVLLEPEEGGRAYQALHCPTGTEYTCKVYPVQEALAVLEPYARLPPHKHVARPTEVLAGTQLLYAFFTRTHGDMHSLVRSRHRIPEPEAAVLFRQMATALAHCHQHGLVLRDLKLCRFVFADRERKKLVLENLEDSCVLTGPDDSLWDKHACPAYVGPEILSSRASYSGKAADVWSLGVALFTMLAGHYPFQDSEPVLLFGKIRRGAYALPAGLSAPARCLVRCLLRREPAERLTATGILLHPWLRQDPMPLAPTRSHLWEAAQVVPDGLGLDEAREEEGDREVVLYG
In words: SPR binding kinetics of peptides to TRIB3 (BIAcore T200). The conditions noted are these: in words. The method, then:
Peptide Ae, alanine mutants of Ae (M1-M13), Pep2–con and Pep2–Ae were synthesized by Guoping Pharmaceutical, Co. (China). The Surface plasmon resonance binding kinetics between TRIB3 and the indicated peptides were analyzed by using a BIAcore T200 system (GE Healthcare)[14]. Briefly, TRIB3-GST protein (Sino, China) was immobilized onto four individual flow cells in a CM5 sensor chip (GE Healthcare) through a standard coupling protocol. To measure the binding kinetics, the indicated peptide (2.5~0.009 μM in 2-fold serial dilutions) and a buffer blank for baseline subtraction were sequentially injected, with a regeneration step (glycine, pH 2.5) inserted between each cycle. The equilibrium dissociation constant (KD) was calculated according to BIA-evaluation software.
On the technique in general: SPR reads the build-up and loss of mass on a sensor chip optically.

Experiment [1] relates to TRIB3-silenced MDA-MB-231 cells. In words: Immunoblot of AKT1/FOXO1/SOX2, TRIB3-silenced MDA-MB-231 cells with AKT1 inhibitor MK2206. The format is cell-based. Conditions: 24 hr. On the procedure: Cycloheximide (CHX; Sigma Aldrich, R750107) was used as a protein synthesis inhibitor to assess the stability of the existing proteins. To assess protein stability, cells were treated with 20 μM CHX and the proteasome inhibitor MG132 (Sigma Aldrich, R750107) at 10 μM or the autophagy inhibitor BAF (Sigma Aldrich, B1793) at 200 nM for the indicated times. Protein expression was assessed via immunoblot analysis with cell lysates (20–60 μg) prepared in RIPA lysis buffer containing protease inhibitors (Roche) using anti-SOX2 (3529), anti-NANOG (4903), anti-OCT4 (2750), anti-KLF4 (4038), anti-c-Myc (13987), anti-FOXO1 (2880), anti-p-FOXO1 (9461), anti-AKT (4685), anti-p-AKT (4060), anti-β-ACTIN (4970), anti-Ubiquitin (3936), or anti-LaminA/C (4777) antibodies from CST; anti-TRIB3 antibody (ab75846) from Abcam; and anti-Trib3 antibody (PA5-15480) from Thermo Fisher Scientific[59]. All antibodies were used at 1:1000 dilution, with the exception of anti-β-Actin antibodies, which were used at 1:2000 dilution. The protein concentrations were determined by BCA Protein Assay Kits (Pierce). […]
indicated proteins were detected by immunoblotting. […]
MK2206 for 24 hr. Cell extracts were prepared and the levels of the indicated proteins were detected […]
levels of the indicated proteins were detected by immunoblotting. […]
glucose (HG) for 24 hr was detected by Western blotting. […]

Experiment [2] has as its system TRIB3-silenced MCF7 cells. In words: Immunoblot of AKT1/FOXO1/SOX2, TRIB3-silenced MCF7 cells with AKT1 inhibitor MK2206. The class given is cell-based, human. Conditions: TRIB3-silenced MCF7 cells, 24 h. The source says: Fig. 6 TRIB3 abrogates the AKT-FOXO1 interaction. a Supervised clustering of MCF7 cells transfected with CTRL-shRNA or TRIB3-shRNA using the log2-transformed values for genes in the FOXO1 upstream pathway, including AMPK, ERK, PI3K, p38, and JNK clustered genes expressed in all samples. Each column represents a separate case. Z-scores from IPA depicting the subnetwork gene expression differences between CTRL-shRNA and TRIB3-shRNA cases. The Z-score heat map depicts the five FOXO1 upstream subnetworks. Each row represents the data for the subnetwork indicated in the right margin. b, c TRIB3 inhibited the activity of AKT1 in BCCs. The indicated stable expression cell extracts were prepared and the levels of the indicated proteins were detected by immunoblotting. d, e The effects of the AKT1 agonist or antagonist for TRIB3-FOXO1-SOX2 axis in BCCs. The indicated cells were treated with the AKT1 agonist SC79 or the antagonist MK2206 for 24 h. […] HMLE cell extracts were IP with an anti-AKT1 Ab and blotted with an anti-TRIB3 or anti-FOXO1 Ab in the presence of the indicated concentration of the TRIB3-GST protein. Data are shown as the mean ± SEM; P > 0.05 was considered not significant (NS); *P < 0.05, **P < 0.01, and ***P < 0.001 compared with the vector or CTRL-shRNA group. Source data are provided as a Source Data file.
(§1) Cycloheximide (CHX; Sigma Aldrich, R750107) was used as a protein synthesis inhibitor to assess the stability of the existing proteins. To assess protein stability, cells were treated with 20 μM CHX and the proteasome inhibitor MG132 (Sigma Aldrich, R750107) at 10 μM or the autophagy inhibitor BAF (Sigma Aldrich, B1793) at 200 nM for the indicated times. Protein expression was assessed via immunoblot analysis with cell lysates (20–60 μg) prepared in RIPA lysis buffer containing protease inhibitors (Roche) using anti-SOX2 (3529), anti-NANOG (4903), anti-OCT4 (2750), anti-KLF4 (4038), anti-c-Myc (13987), anti-FOXO1 (2880), anti-p-FOXO1 (9461), anti-AKT (4685), anti-p-AKT (4060), anti-β-ACTIN (4970), anti-Ubiquitin (3936), or anti-LaminA/C (4777) antibodies from CST; anti-TRIB3 antibody (ab75846) from Abcam; and anti-Trib3 antibody (PA5-15480) from Thermo Fisher Scientific[59]. All antibodies were used at 1:1000 dilution, with the exception of anti-β-Actin antibodies, which were used at 1:2000 dilution. The protein concentrations were determined by BCA Protein Assay Kits (Pierce). Proteins were separated by SDS-polyacrylamide gel electrophoresis (PAGE) and transferred to polyvinylidene difluoride membrane.
In general terms: Immunoblotting shows a protein as a band on a membrane.

Experiment [3] relates to FOXO1. In words: FOXO1 immunoblot in control or TRIB3-silenced MDA-MB-231 cells with BAF or MG132. The format is cell-based. The conditions noted are these: BAF 200 nM or MG132 10 μM, 8 h, in words. On the procedure: (§2) Fig. 5 TRIB3 stabilizes the FOXO1 protein by suppressing its ubiquitination. a, b HMLE cells transfected with a TRIB3-expressing vector vs. a control vector (a) or MCF7 cells transfected with TRIB3-shRNA vs. CTRL-shRNA (b) were incubated with 20 μM cycloheximide (CHX) for the indicated times. c, d The effect of TRIB3 depletion on FOXO1 degradation in vitro. MCF7 cells (c) were incubated with CHX (20 μM), CHX plus bafilomycin (BAF, 200 nM), or MG132 (10 μM) for the indicated times. Control or TRIB3-silenced MCF7 cells (d, top) and MDA-MB-231 cells (d, bottom) were incubated with DMSO, 200 nM BAF, or 10 μM MG132 for 8 h. The indicated proteins were detected by immunoblotting. e, f FOXO1 activity in HMLE cells (e) transfected with a control vector or a TRIB3-expressing vector, or in MCF7 cells (f) transfected with CTRL-shRNA or TRIB3-shRNA and either a control vector or a FOXO1-expressing vector. g, h The effect of TRIB3 on FOXO1 ubiquitination. HMLE (g) or MCF7 cells (h) were transfected with the indicated plasmid. His-ubiquitin-conjugated proteins were pulled down from cell lysates. Total protein lysates and Ni-NTA-agarose eluates were immunoblotted for FLAG, His, and TRIB3. […]
(§3) Cycloheximide (CHX; Sigma Aldrich, R750107) was used as a protein synthesis inhibitor to assess the stability of the existing proteins. […] The protein concentrations were determined by BCA Protein Assay Kits (Pierce). […]

Experiment [4] deals with FOXO1. In words: FOXO1 protein stability (cycloheximide chase), MCF7 cells. The class given is cell-based, human. The conditions noted are these: CHX 20 μM plus BAF 200 nM or MG132 10 μM, in words. The method, then: Fig. 5 TRIB3 stabilizes the FOXO1 protein by suppressing its ubiquitination. a, b HMLE cells transfected with a TRIB3-expressing vector vs. a control vector (a) or MCF7 cells transfected with TRIB3-shRNA vs. CTRL-shRNA (b) were incubated with 20 μM cycloheximide (CHX) for the indicated times. c, d The effect of TRIB3 depletion on FOXO1 degradation in vitro. MCF7 cells (c) were incubated with CHX (20 μM), CHX plus bafilomycin (BAF, 200 nM), or MG132 (10 μM) for the indicated times. Control or TRIB3-silenced MCF7 cells (d, top) and MDA-MB-231 cells (d, bottom) were incubated with DMSO, 200 nM BAF, or 10 μM MG132 for 8 h. The indicated proteins were detected by immunoblotting. e, f FOXO1 activity in HMLE cells (e) transfected with a control vector or a TRIB3-expressing vector, or in MCF7 cells (f) transfected with CTRL-shRNA or TRIB3-shRNA and either a control vector or a FOXO1-expressing vector. g, h The effect of TRIB3 on FOXO1 ubiquitination. HMLE (g) or MCF7 cells (h) were transfected with the indicated plasmid. His-ubiquitin-conjugated proteins were pulled down from cell lysates. Total protein lysates and Ni-NTA-agarose eluates were immunoblotted for FLAG, His, and TRIB3. Source data are provided as a Source Data file. […] I left them out because their labels are genetic constructs, not substances; their digits are also small
as §1

Experiment [5] relates to FOXO1. In words: FOXO1 immunoblot in control or TRIB3-silenced MCF7 cells with BAF or MG132. The class given is cell-based, human. Conditions: BAF 200 nM or MG132 10 μM, 8 h, in words. The method, then:
as §2, §3

The test system of experiment [6] is FOXO1. Conditions: HEPG2 cells, after insulin activation of PI3K-AKT; 12-hr under sera deprivation; ref Matsuzaki et al. (2003, PNAS); cited from earlier work.
Experiment [7] deals with AKT1, endogenous in human cells (human (endogenous in HMLE, MCF7, …, UniProt P31749 1-480)). As to the kind of experiment: cell-based or functional assay.
For another experiment, the system named is AKT1-FOXO1 interaction. In words: Co-IP of AKT1-FOXO1 interaction in HMLE cell extracts with TRIB3-GST protein. The class given is binding, human. Conditions: IP anti-AKT1. The text has this: Fig. 6 TRIB3 abrogates the AKT-FOXO1 interaction. a Supervised clustering of MCF7 cells transfected with CTRL-shRNA or TRIB3-shRNA using the log2-transformed values for genes in the FOXO1 upstream pathway, including AMPK, ERK, PI3K, p38, and JNK clustered genes expressed in all samples. Each column represents a separate case. Z-scores from IPA depicting the subnetwork gene expression differences between CTRL-shRNA and TRIB3-shRNA cases. The Z-score heat map depicts the five FOXO1 upstream subnetworks. Each row represents the data for the subnetwork indicated in the right margin. b, c TRIB3 inhibited the activity of AKT1 in BCCs. The indicated stable expression cell extracts were prepared and the levels of the indicated proteins were detected by immunoblotting. d, e The effects of the AKT1 agonist or antagonist for TRIB3-FOXO1-SOX2 axis in BCCs. The indicated cells were treated with the AKT1 agonist SC79 or the antagonist MK2206 for 24 h. […]
Cell pellets were lysed with coimmunoprecipitation buffer (25 mM Tri-cl (pH 7.4), 150 mM NaCl, 0.5% NP-40, 2.5 mM MgCl, 0.5 mM EDTA, 5% Glycerol), incubated with IP antibodies overnight at 4 °C with shaking, and then incubated with Protein A/G Plus-Agarose (Santa Cruz Biotechnology) for 2 h at 4 °C[15]. Interaction complexes were separated from the beads by boiling for 10 min and then subjected to SDS-PAGE and detected with immunoblotting.

AKT1, endogenous in human cells (human, sequence (P31749 whole entry): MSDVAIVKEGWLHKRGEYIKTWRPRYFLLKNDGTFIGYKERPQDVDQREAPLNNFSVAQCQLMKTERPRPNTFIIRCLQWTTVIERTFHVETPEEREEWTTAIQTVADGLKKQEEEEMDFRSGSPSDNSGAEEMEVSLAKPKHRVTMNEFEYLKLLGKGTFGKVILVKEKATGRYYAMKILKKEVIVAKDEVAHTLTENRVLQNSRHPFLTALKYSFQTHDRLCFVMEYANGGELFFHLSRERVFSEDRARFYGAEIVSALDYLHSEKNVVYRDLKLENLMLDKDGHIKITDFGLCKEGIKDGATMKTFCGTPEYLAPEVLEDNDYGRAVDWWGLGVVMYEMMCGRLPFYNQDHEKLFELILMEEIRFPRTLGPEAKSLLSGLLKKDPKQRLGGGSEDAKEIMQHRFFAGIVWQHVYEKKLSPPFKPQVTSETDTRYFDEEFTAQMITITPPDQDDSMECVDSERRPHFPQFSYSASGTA

Consider “AAHTAAENRV AAA [Pep2–con, reference compound]”, for which the “interaction with TRIB3 of control peptide” value at TRIB3-GST protein (authors' reply to reviewers) is “no interaction with TRIB3”.
Regarding `NC1(c2ccc(-c3nc4ccn5c(=O)[nH]nc5c4cc3-c3ccccc3)cc2)CCC1` [MK2206, reference compound], in experiment [1], the “FOXO1 and SOX2 expression” value was “rescued FOXO1 and SOX2 expression”; the “activity of AKT1 S473 and FOXO1 S256” value is “suppressed the activity of AKT1^S473 and FOXO1^S256”. In addition, in [2], the “FOXO1 and SOX2 expression” value is “rescued FOXO1 and SOX2 expression”; the “activity of AKT1 S473 and FOXO1 S256” value is “suppressed the activity of AKT1^S473 and FOXO1^S256”.
“Ae: α-helical peptide which mimics the AKT1 191–204 α-helical region (EVAHTLTENRVLQN; UniProt P31749 191-204, looked up, fragment)”: in the experiment with TRIB3-GST protein (SPR, series of α-helical peptides of AKT1 catalytic domain), the “binding affinity with TRIB3, rank among α-helical peptides” value is reported as “displayed the best binding affinity with TRIB3 among all the α-helical peptides analyzed”.
With `CO/C1=C\C(C)=C\[C@@H](C)[C@@H](O)[C@@H](C)C/C(C)=C/C=C/[C@H](OC)[C@@H]([C@@H](C)[C@@H](O)[C@H](C)[C@@]2(O)C[C@@H](O)[C@H](C)[C@@H](C(C)C)O2)OC1=O` [BAF, bafilomycin], the “inhibition of FOXO1 reduction caused by TRIB3 silencing” value in the experiment with FOXO1 [3] and with FOXO1 [5] was “not by BAF” each time. The “degradation of FOXO1” value with FOXO1 [4] was “not by the autophagy inhibitor bafilomycin”.
Turning to “insulin: insulin activation of the PI3K-AKT signaling pathway”, the FOXO1 half-life result in the experiment with FOXO1 [6] is recorded as “approximately 6 hr”.

B1: Tribbles homolog 3 (TRIB3), endogenous in human breast cancer cells (natural protein, UniProt Q96RU7 1-358, looked up)
chain: T1 sequence (Q96RU7 1-358)
As for B1, the “half-life of FOXO1 degradation in MCF7 cells treated with Pep2–Ae (Supplementary Fig. 10d)” value in experiment [7] stood at 36 min.

B2: TRIB3-GST protein: TRIB3-GST protein (Sino, China) (protein)
chain: T1 sequence (Q96RU7 1-358)
modifications: left off: GST, end not stated, kept
Consider B2, for which the AKT1-FOXO1 interaction result in the experiment with AKT1-FOXO1 interaction is reported as “inhibited the AKT1-FOXO1 interaction by binding to AKT1”.
